Source: patent US20240027453A1, “METHOD FOR DETECTION AND QUANTITATIVE MONITORING OF INFECTIONS WITH HERPESVIRUSES” (The Trustees of Princeton University, priority 2020, published 2024)
Where two headings read alike, the source gives them in different places.

Test system: HCMV
Assay type: cell-based
Conditions: L
Description: In example herpesvirus PRM assay methods shown herein, cell pellets were lysed in 2% SDS, 100 mM NaCl, 0.5 mM EDTA, 50 mM Tris, pH 8.2, and 50 μg of protein was reduced and alkylated with 25 mM TCEP and 50 mM CAM respectively for 20 min at 70° C. Proteins were then precipitated via methanol chloroform precipitation (Wessel & Flugg, Anal Biochem. 138(1):141-143, 1984), resuspended in 50 mM HEPES, pH 8.2 and digested overnight with trypsin (50:1 protein:enzyme w/w ratio). Digested peptides were desalted by SDB-RPS StageTip as previously described (Lum et al., Cell Syst., 7(6):[…], 2018; Greco et al., Methods Mol Biol 1410:39-63, 2016; Federspiel & Cristea, Methods Mol Biol., 1977:115-143, 2019).
Peptides (1.0 μg on column) were analyzed by LC-MS/MS using a Dionex Ultimate 3000 UHPLC coupled online to an EASYSpray ion source and a Q Exactive HF. Peptides were separated on an EASYSpray C18 column (75 μm×25 cm) heated to 50° C. using a linear gradient of 5% B to 32% B over 60 min at a flow rate of 250 nL/min and were ionized at 1.7 kv. Mobile phase A consisted of 0.1% FA in H2O and mobile phase B consisted of 0.1% FA, 2.9% H2O in ACN.
The PRM method was controlled by a peptide inclusion list with retention time windows of 6 min for selected precursor ions.
The PRM assay was developed and analyzed using the open-source software Skyline (Maclean et al., Bioinformatics 26(7):966-968, 2010). Summed area under the curve of 3-4 transitions per peptide was used for quantitation. Targeted peptides were normalized to host protein loading control peptides. Peptide values for each sample were scaled to the average of each peptide across all runs. The average of multiple peptides was used as the inferred value for the protein measurement when more than one peptide was quantified (Federspiel et al., PLoS Biol. 17(9):e3000437. Doi: 10.1371/journal.pbio.3000437). PRM quantitation data were graphed using the Python Seaborn and Matplotlib libraries.
MRC5 primary human fibroblasts (HFs) (ATCC CCL-171) were used as the model system for HSV-1 and HCMV infections and were cultured in complete growth medium (DMEM supplemented with 10% fetal bovine serum and 1% penicillin-streptomycin antibiotics) at 37° C. and 5% CO2. iSLK.219 cells harboring latent KSHV (a gift from Dr. Britt Glaunsinger, University of California, Berkeley) were grown in complete growth medium supplemented with 500 μg/ml hygromycin (ThermoFisher Scientific, 10687010) at 37° C. and 5% CO2. All cells were used for experiments within a maximum of 10 passages.
Wild type HSV-1 strain 17+ (a gift from Beate Sodeik, Hannover Medical School, Hannover, Germany) was propagated as previously described (Diner et al., 2015). Briefly, PO stocks were generated by electroporating pBAC-HSV-1 into U-2 OS cells. […] In a similar manner, wild type HCMV strain AD169 was produced from BAC electroporation into HFs and working stocks were propagated by infecting HFs at a low level. In both cases, cell-associated virus was released by sonication, combined with supernatant virus, then concentrated by ultracentrifugation (20,000 rpm, 2 hours, 4° C. with SW28 swinging bucket rotor [Beckman Coulter]) over a 10% ficoll (HSV-1) or 20% sorbitol (HCMV) cushion. Virus stock titers were determined by plaque assay for HSV-1 or tissue culture infectious dose (TCID50) for HCMV and infections were performed at a multiplicity of infection (MOI) of 3.
12 hours prior to virus infection or reactivation, cells were treated with either the small molecule drug or DMSO/PBS control at an equivalent volume. […] For infection cycles lasting longer than 24 hours, small molecule drugs were re-added to the cell culture medium every 24 hours. Upon collection, cells were rinsed with PBS, scraped into a microcentrifuge tube, pelleted by centrifugation, and rinsed again with PBS.

SMILES: Nc1ccn(C[C@@H](CO)OCP(=O)(O)O)c(=O)n1 [CDV, cidofovir]
- UL82 (P06726) protein, numerical value of heatmap FIG. 6C (timepoint 48): 0.2148
- UL88 (P16731) protein, numerical value of heatmap FIG. 6C (timepoint 48): 0.05021
- UL94 (P16800) protein, numerical value of heatmap FIG. 6C (timepoint 48): 0.09258
- UL99 (P13200) protein, numerical value of heatmap FIG. 6C (timepoint 48): 0.06513
- UL103 (P16734) protein, numerical value of heatmap FIG. 6C (timepoint 48): 0.1954
- UL117 (P16770) protein, numerical value of heatmap FIG. 6C (timepoint 48): 0.3875
- gH (P12824) protein, numerical value of heatmap FIG. 6C (timepoint 48): 0.1304
- gL (P16832) protein, numerical value of heatmap FIG. 6C (timepoint 48): 0.06908
- gM (P16733) protein, numerical value of heatmap FIG. 6C (timepoint 48): 0.03119
- gN (P16795) protein, numerical value of heatmap FIG. 6C (timepoint 48): 0.07597
- sp|P16809|IR11_HCMVA (P16809) protein, numerical value of heatmap FIG. 6C (timepoint 48): 0.502
- CVC1 (P16799) protein, numerical value of heatmap FIG. 6C (timepoint 72): 0.4079
- GO (P16750) protein, numerical value of heatmap FIG. 6C (timepoint 72): 0.601
- MCP (P16729) protein, numerical value of heatmap FIG. 6C (timepoint 72): 0.4006
- SCP (Q7M6N6) protein, numerical value of heatmap FIG. 6C (timepoint 72): 0.3733
- TRM2 (P16792) protein, numerical value of heatmap FIG. 6C (timepoint 72): 0.5505
- UL22A (P16845) protein, numerical value of heatmap FIG. 6C (timepoint 72): 0.4199
- UL25 (P16761) protein, numerical value of heatmap FIG. 6C (timepoint 72): 0.4606
- UL29 (P16764) protein, numerical value of heatmap FIG. 6C (timepoint 72): 0.8549
- UL30 (P16765) protein, numerical value of heatmap FIG. 6C (timepoint 72): 0.4115
- UL31 (P16848) protein, numerical value of heatmap FIG. 6C (timepoint 72): 0.4223
- UL43 (P16781) protein, numerical value of heatmap FIG. 6C (timepoint 72): 0.2402
- UL52 (P16793) protein, numerical value of heatmap FIG. 6C (timepoint 72): 0.4658
- UL76 (P16725) protein, numerical value of heatmap FIG. 6C (timepoint 72): 0.3035
- UL79 (P16752) protein, numerical value of heatmap FIG. 6C (timepoint 72): 0.4713
- UL80 (P16753) protein, numerical value of heatmap FIG. 6C (timepoint 72): 0.6581
- UL82 (P06726) protein, numerical value of heatmap FIG. 6C (timepoint 72): 0.4947
- UL88 (P16731) protein, numerical value of heatmap FIG. 6C (timepoint 72): 0.4289
- UL94 (P16800) protein, numerical value of heatmap FIG. 6C (timepoint 72): 0.5474
- UL99 (P13200) protein, numerical value of heatmap FIG. 6C (timepoint 72): 0.455
- UL103 (P16734) protein, numerical value of heatmap FIG. 6C (timepoint 72): 0.5642
- UL117 (P16770) protein, numerical value of heatmap FIG. 6C (timepoint 72): 0.5867
- gH (P12824) protein, numerical value of heatmap FIG. 6C (timepoint 72): 0.7542
- gL (P16832) protein, numerical value of heatmap FIG. 6C (timepoint 72): 0.5073
- gM (P16733) protein, numerical value of heatmap FIG. 6C (timepoint 72): 0.477
- gN (P16795) protein, numerical value of heatmap FIG. 6C (timepoint 72): 0.5141
- sp|P16809|IR11_HCMVA (P16809) protein, numerical value of heatmap FIG. 6C (timepoint 72): 0.869
- CVC1 (P16799) protein, numerical value of heatmap FIG. 6C (timepoint 96): 0.6
- GO (P16750) protein, numerical value of heatmap FIG. 6C (timepoint 96): 0.5678
- MCP (P16729) protein, numerical value of heatmap FIG. 6C (timepoint 96): 0.8755
- SCP (Q7M6N6) protein, numerical value of heatmap FIG. 6C (timepoint 96): 0.678
- TRM2 (P16792) protein, numerical value of heatmap FIG. 6C (timepoint 96): 0.8343
- UL22A (P16845) protein, numerical value of heatmap FIG. 6C (timepoint 96): 0.5842
- UL25 (P16761) protein, numerical value of heatmap FIG. 6C (timepoint 96): 0.8443
- UL29 (P16764) protein, numerical value of heatmap FIG. 6C (timepoint 96): 0.8921
- UL30 (P16765) protein, numerical value of heatmap FIG. 6C (timepoint 96): 0.5445
- UL31 (P16848) protein, numerical value of heatmap FIG. 6C (timepoint 96): 0.6245
- UL43 (P16781) protein, numerical value of heatmap FIG. 6C (timepoint 96): 0.7777
- UL52 (P16793) protein, numerical value of heatmap FIG. 6C (timepoint 96): 0.8766
- UL76 (P16725) protein, numerical value of heatmap FIG. 6C (timepoint 96): 0.421
- UL79 (P16752) protein, numerical value of heatmap FIG. 6C (timepoint 96): 0.5586
